Results reported in patent US20260053811A1, “METHODS OF TREATING HYPERTENSION IN OBESE SUBJECTS” (Mineralys Therapeutics, Inc., priority 2022, published 2026).

Test system: hypertensive subjects
Test: Adverse events (TEAEs, SAEs, AESI, study drug discontinuation, dose modification);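 further: counts of spontaneously reported adverse events in the Safety Analysis Set, subjects grouped by treatment actually received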
Format: in vivo, human
Excerpt: In analyses performed on the Safety Analysis Set, subjects will be analyzed according to their actual treatment received.

## CC(=O)N[C@H]1CC[C@H](NC(=O)CN2CCN(c3nncc(-c4ccc(C)cc4)n3)CC2)CC1 [Compound A HBr]
Part 1, 100 mg QD (N = 30)
  TEAE leading to permanent discontinuation from study drug: Orthostatic hypotension: 0 n (%)
  TEAE leading to permanent discontinuation from study drug: Vascular disorders: 1 (3.3) n (%)
Part 1, Active (N = 133)
  On-treatment TEAE: Blood and lymphatic system disorders: 2 (1.5) n (%)
  On-treatment TEAE: Blood and lymphatic system disorders, Mild: 2 (1.5) n (%)
  On-treatment TEAE: Blood creatinine increased: 3 (2.3) n (%)
  On-treatment TEAE: Blood creatinine increased, Mild: 3 (2.3) n (%)
  On-treatment TEAE: Cardiac disorders: 4 (3.0) n (%)
  On-treatment TEAE: Cortisol decreased: 3 (2.3) n (%)
  On-treatment TEAE: Cortisol decreased, Mild: 3 (2.3) n (%)
  On-treatment TEAE: Dizziness: 3 (2.3) n (%)
  On-treatment TEAE: Gastrointestinal disorders: 6 (4.5) n (%)
  On-treatment TEAE: Gastrointestinal disorders, Mild: 5 (3.8) n (%)
  On-treatment TEAE: General disorders and administration site conditions: 5 (3.8) n (%)
  On-treatment TEAE: General disorders and administration site conditions, Mild: 2 (1.5) n (%)
  On-treatment TEAE: Glomerular filtration rate decreased: 9 (6.8) n (%)
  On-treatment TEAE: Glomerular filtration rate decreased, Mild: 8 (6.0) n (%)
  On-treatment TEAE: Headache: 3 (2.3) n (%)
  On-treatment TEAE: Headache, Mild: 3 (2.3) n (%)
  On-treatment TEAE: Hyperkalaemia: 31 (23.3) n (%)
  On-treatment TEAE: Hyperkalaemia, Mild: 26 (19.5) n (%)
  On-treatment TEAE: Hyperkalaemia, Moderate: 4 (3.0) n (%)
  On-treatment TEAE: Hyperkalaemia, Severe: 1 (0.8) n (%)
  On-treatment TEAE: Hypertension: 5 (3.8) n (%)
  On-treatment TEAE: Hypertension, Moderate: 3 (2.3) n (%)
  On-treatment TEAE: Infections and infestations: 11 (8.3) n (%)
  On-treatment TEAE: Infections and infestations, Mild: 5 (3.8) n (%)
  On-treatment TEAE: Infections and infestations, Moderate: 6 (4.5) n (%)
  On-treatment TEAE: Investigations: 21 (15.8) n (%)
  On-treatment TEAE: Investigations, Mild: 17 (12.8) n (%)
  On-treatment TEAE: Investigations, Moderate: 4 (3.0) n (%)
  On-treatment TEAE: Metabolism and nutrition disorders: 34 (25.6) n (%)
  On-treatment TEAE: Metabolism and nutrition disorders, Mild: 29 (21.8) n (%)
  On-treatment TEAE: Metabolism and nutrition disorders, Moderate: 4 (3.0) n (%)
  On-treatment TEAE: Nervous system disorders: 8 (6.0) n (%)
  On-treatment TEAE: Nervous system disorders, Mild: 6 (4.5) n (%)
  On-treatment TEAE: Orthostatic hypotension: 3 (2.3) n (%)
  On-treatment TEAE: Orthostatic hypotension, Mild: 3 (2.3) n (%)
  On-treatment TEAE: Psychiatric disorders: 3 (2.3) n (%)
  On-treatment TEAE: Psychiatric disorders, Moderate: 3 (2.3) n (%)
  On-treatment TEAE: Urinary tract infection: 7 (5.3) n (%)
  On-treatment TEAE: Urinary tract infection, Mild: 4 (3.0) n (%)
  On-treatment TEAE: Vascular disorders: 9 (6.8) n (%)
  On-treatment TEAE: Vascular disorders, Mild: 5 (3.8) n (%)
  On-treatment TEAE: Vascular disorders, Moderate: 4 (3.0) n (%)
  On-treatment TEAE: any, Mild: 47 (35.3) n (%)
  On-treatment TEAE: any, Moderate: 25 (18.8) n (%)
  On-treatment TEAE: any, Severe: 1 (0.8) n (%)
  Subjects with any On-treatment TEAEs leading to withdrawal from study drug: 10 (7.5) n (%)
  TEAE leading to permanent discontinuation from study drug: Activated partial thromboplastin time prolonged: 1 (0.8) n (%)
  TEAE leading to permanent discontinuation from study drug: Cardiac disorders: 1 (0.8) n (%)
  TEAE leading to permanent discontinuation from study drug: Coronary artery disease: 1 (0.8) n (%)
  TEAE leading to permanent discontinuation from study drug: Dizziness: 1 (0.8) n (%)
  TEAE leading to permanent discontinuation from study drug: Hyperkalaemia: 5 (3.8) n (%)
  TEAE leading to permanent discontinuation from study drug: Hypertension: 1 (0.8) n (%)
  TEAE leading to permanent discontinuation from study drug: Hypotension: 1 (0.8) n (%)
  TEAE leading to permanent discontinuation from study drug: Investigations: 1 (0.8) n (%)
  TEAE leading to permanent discontinuation from study drug: Metabolism and nutrition disorders: 5 (3.8) n (%)
  TEAE leading to permanent discontinuation from study drug: Nervous system disorders: 1 (0.8) n (%)
  TEAE leading to permanent discontinuation from study drug: Orthostatic hypotension: 1 (0.8) n (%)
  TEAE leading to permanent discontinuation from study drug: Vascular disorders: 3 (2.3) n (%)
Part 1 All active (N 159)
  Dose titration: Hyperkalemia, subjects n (%): 6 (3.8%)
  Dose titration: Hyponatremia, subjects n (%): 0
  Dose titration: Other possibly related, subjects n (%): 0
  Dose titration: Other unrelated, subjects n (%): 1 (0.6%)
  Study drug discontinuation: Hyperkalemia, subjects n (%): 6 (3.8%)
  Study drug discontinuation: Hyponatremia, subjects n (%): 0
  Study drug discontinuation: Hypotension, subjects n (%): 2 (1.2%)
  Study drug discontinuation: Other possibly related, subjects n (%): 1 (0.6%)
  Study drug discontinuation: Other unrelated, subjects n (%): 11 (6.9%)
Part 1 or Part 2
  Deaths: No deaths were reported
Part 2
  Subjects with TEAE resulting in dose modification: 7
Part 2 100mg QD (N 31)
  Dose titration: Hyperkalemia, subjects n (%): 1 (3.2%)
  Dose titration: Hyponatremia, subjects n (%): 1 (3.2%)
  Dose titration: Other possibly related, subjects n (%): 0
  Dose titration: Other unrelated, subjects n (%): 0
  Study drug discontinuation: Hyperkalemia, subjects n (%): 0
  Study drug discontinuation: Hyponatremia, subjects n (%): 1 (3.4%)
  Study drug discontinuation: Hypotension, subjects n (%): 1 (2.8%)
  Study drug discontinuation: Other possibly related, subjects n (%): 0
  Study drug discontinuation: Other unrelated, subjects n (%): 1 (2.8%)
Part 2, 100 mg QD (N = 31)
  Subjects with any On-treatment TEAEs leading to withdrawal from study drug: 2 (6.5) n (%)
  TEAE leading to permanent withdrawal from study drug: Glomerular filtration rate decreased: 1 (3.2) n (%)
  TEAE leading to permanent withdrawal from study drug: Hyponatraemia: 1 (3.2) n (%)
  TEAE leading to permanent withdrawal from study drug: Investigations: 1 (3.2) n (%)
  TEAE leading to permanent withdrawal from study drug: Metabolism and nutrition disorders: 1 (3.2) n (%)
  TEAE leading to permanent withdrawal from study drug: Muscle spasms: 1 (3.2) n (%)
  TEAE leading to permanent withdrawal from study drug: Musculoskeletal and connective tissue disorders: 1 (3.2) n (%)
Part 2, 100 mg QD cohort
  Subjects with muscle spasms (PT): 3 (9.7%)
  Subjects with ≥1 moderate on-treatment TEAE: 12 (38.7%)
Total active (N 190)
  Dose titration: Hyperkalemia, subjects n (%): 7 (4.1%)
  Dose titration: Hyponatremia, subjects n (%): 1 (0.5%)
  Dose titration: Other possibly related, subjects n (%): 0
  Dose titration: Other unrelated, subjects n (%): 1 (0.5%)
  Study drug discontinuation: Hyperkalemia, subjects n (%): 6 (3.2%)
  Study drug discontinuation: Hyponatremia, subjects n (%): 1 (0.5%)
  Study drug discontinuation: Hypotension, subjects n (%): 3 (1.6%)
  Study drug discontinuation: Other possibly related, subjects n (%): 1 (0.5%)
  Study drug discontinuation: Other unrelated, subjects n (%): 12 (6.3%)
Fall of 20 mmHg SBP or 10 mmHg DBP sitting to standing
  Subjects who developed orthostatic hypotension: three
Pooled (Part 1 and Part 2) 100 mg QD safety set (n=60)
  Episodes of severe hyperkalemia: no episodes of severe hyperkalemia
Two in 100 mg QD cohorts (Part 1, Part 2), one in 12.5 mg BID
  Subjects with hypotension related to treatment: three
Whole trial (Example 1 analysis)
  Serious adverse events (SAEs) related to the study medication: No serious adverse events (SAEs) related to the study medication were observed
